Patent publication US9511091B2, “Rare earth metal compounds, methods of making, and methods of using the same” (Spectrum Pharmaceuticals, Inc., priority 2002, dated 2016)

Experiments:
[1] = binding efficiency test, spiked water; settings: 0.50 g in 30.0 ml spike solution, approximately 1 mg/l of each element, 18 hrs, room temperature
Protocol: Tests were run to determine the binding efficiency of eight different compounds for twenty-four different elements.
The main objective of the tests was to investigate the efficiency at which the compounds bind arsenic and selenium, in view of their use in removing those elements from drinking water. Twenty-one different anions were also included to explore further possibilities. The tests were performed as follows:
The compounds given in Table 6 were added to water and a spike and were vigorously shaken at room temperature for 18 hrs. The samples were filtered and the filtrate analyzed for a suite of elements including Sb, As, Be, Cd, Ca, Cr, Co, Cu, Fe, Pb, Mg, Mn, Mo, Ni, Se, Tl, Ti, V, Zn, Al, Ba, B, Ag, and P.
2. Add standard solutions of the elements given above to make solutions containing approximately 1 mg/l of each element.
1. Weigh 0.50 g of each compound into its own 50 ml centrifuge tube.
2. Add 30.0 ml of the spike solution to each.
3. Cap tightly and shake vigorously for 18 hrs.
4. Filter solution from each centrifuge tube through 0.2 µm syringe filter. Obtain about 6 ml of filtrate.
5. Dilute filtrates 5:10 with 2% HNO3. Final Matrix is 1% HNO3.

[2] = reactivity with respect to phosphate: phosphate removal from pH 3 Na2HPO4/HCl stock solution; type: binding; settings: for rate of removal of phosphate compared with LaOCl of Example 1: FIG. 14, pH 3; for Initial 1st order rate constant k1: calculated from the experimental points for the first minute of the reaction, pH 3; for Fraction of PO4 remaining after 10 min: pH 3 stock solution, La 3 times the stoichiometric amount
Protocol: A desirable lanthanum carbonate hydroxide is LaCO3OH. […] To determine the reactivity of the lanthanum carbonate hydroxide compound with respect to phosphate, the following procedure was used. A stock solution containing 13.75 g/l of anhydrous Na2HPO4 and 8.5 g/l of HCl is prepared. The stock solution is adjusted to pH 3 by the addition of concentrated HCl. 100 ml of the stock solution is placed in a beaker with a stirring bar. A sample of lanthanum carbonate hydroxide powder is added to the solution. The amount of lanthanum carbonate hydroxide powder is such that the amount of La in suspension is 3 times the stoichiometric amount needed to react completely with the phosphate. Samples of the suspension are taken at intervals, through a filter that separated all solids from the liquid. The liquid sample is analyzed for phosphorous.
(§1) To determine the reactivity of the lanthanum compound with respect to phosphate, the following test was conducted. A stock solution containing 13.75 g/l of anhydrous Na2HPO4 and 8.5 g/l of HCl was prepared. The stock solution was adjusted to pH 3 by the addition of concentrated HCl. An amount of 100 ml of the stock solution was placed in a beaker with a stirring bar. The lanthanum oxychloride from above was added to the solution to form a suspension. The amount of lanthanum oxychloride was such that the amount of La in suspension was 3 times the stoichiometric amount needed to react completely with the phosphate. Samples of the suspension were taken at time intervals, through a filter that separated all solids from the liquid. The liquid sample was analyzed for phosphorous.
as §1, with “Lanthanum carbonate hydroxide powder made as described” for “The lanthanum oxychloride from”, “solution.” for “solution to form a suspension.”, “carbonate hydroxide powder” for “oxychloride”, “intervals” for “intervals,”
(§2) To determine the reactivity of this lanthanum compound with respect to phosphate, the following test was conducted. A stock solution containing 13.75 g/l of anhydrous Na2HPO4 and 8.5 g/l of HCl was prepared. The stock solution was adjusted to pH 3 by the addition of concentrated HCl. An amount of 100 ml of the stock solution was placed in a beaker with a stirring bar. Anhydrous lanthanum oxycarbonate made as described above, was added to the solution. The amount of anhydrous lanthanum oxycarbonate was such that the amount of La in suspension was 3 times the stoichiometric amount needed to react completely with the phosphate. Samples of the suspension were taken at intervals, through a filter that separated all solids from the liquid. The liquid sample was analyzed for phosphorous.
as §2, with “reactivity of the lanthanum compound” for “reactivity of this lanthanum compound”, “stirring bar. La2CO5 powder, made as” for “stirring bar. Anhydrous lanthanum oxycarbonate made as”, “amount of lanthanum oxycarbonate” for “amount of anhydrous lanthanum oxycarbonate”, “taken at intervals through a” for “taken at intervals, through a”

[3] = specific surface area by the BET method; type: physicochemical
Protocol: For each sample, the surface area measured by the BET method and the fraction of phosphate remaining after 10 min of reaction have been tabulated. […] The rate constant k1 is defined by the following equation: d[PO4]/dt=−k1[PO4]
An aqueous HCl solution having a volume of 334.75 ml and containing LaCl3 (lanthanum chloride) at a concentration of 29.2 wt % as La2O3 was added to a 4 liter beaker and heated to 80° C. with stirring. The initial pH of the LaCl3 solution was 2.2. Two hundred and sixty five ml of an aqueous solution containing 63.59 g of sodium carbonate (Na2CO3) was metered into the heated beaker using a small pump at a steady flow rate for 2 hours. Using a Buchner filtering apparatus fitted with filter paper the filtrate was separated from the white powder product. The filter cake was mixed four times, each with 2 liters of distilled water and filtered to wash away the NaCl formed during the reaction. The washed filter cake was placed into a convection oven set at 105° C. for 2 hours or until a stable weight was observed. […] The surface area of the product was determined by the BET method. The test was repeated 3 times and slightly different surface areas and different reaction rates were obtained as shown in Table 1.

[4] = after 10 min, pH 3, La 3 times the stoichiometric amount

| Structure (SMILES) | % Analyte Removed As [1] [%] | % Analyte Removed Be [1] [%] | % Analyte Removed Ca [1] [%] | % Analyte Removed Cd [1] [%] | % Analyte Removed Co [1] [%] | % Analyte Removed Cr [1] [%] | % Analyte Removed Cu [1] [%] | % Analyte Removed Fe [1] [%] | % Analyte Removed Mg [1] [%] | % Analyte Removed Mn [1] [%] | % Analyte Removed Pb [1] [%] | % Analyte Removed Sb [1] [%] | BET surface area [3] [m^2/g] | Initial 1st order rate constant k1 [2] [min⁻¹] | Fraction of PO4 remaining after 10 min [2] | further results |
| --- | --- | --- | --- | --- | --- | --- | --- | --- | --- | --- | --- | --- | --- | --- | --- | --- |
| O.O.O.O.O=C([O-])[O-].O=C([O-])[O-].O=C([O-])[O-].[La+3].[La+3] [La2(CO3)3•4H2O, reference compound] | 25 | 41 | 28 | 37 | 20 | 94 | 0 | 56 | 0 | 20 | 90 | 84 | – | – | – | % Analyte Removed As ([1]; listed as Commercial lanthanum carbonate): less effective; rate of removal of phosphate compared with LaOCl of Example 1 [2]: faster at the beginning but slower after about 3 minutes; capacity of phosphate removal (PO4 removed/g of La compound) [2, 4]: 45 mg PO4/g; phosphate in solution removed [2, 4]: 38% |
| [La+3].[La+3].[O-2].[O-2].[O-2] [La2O3] | 85 | 97 | 21 | 95 | 69 | 100 | 89 | 92 | 0 | 94 | 92 | 89 | – | – | – | – |
| [O]=[La][Cl] [LaOCl, lanthanum oxychloride] | 76 | 89 | 0 | 46 | 28 | 100 | 88 | 100 | 0 | 28 | 99 | 86 | – | – | – | relationship between the amount of phosphate bound or absorbed and time ([2]; compared with commercial hydrated lanthanum carbonates): closer to linear |
| O=C([O-])[O-].[La+3].[OH-] [Sample 1, LaCO3OH] | – | – | – | – | – | – | – | – | – | – | – | – | 41.3 | 0.949 | 0.130 | – |
| O=C([O-])[O-].[La+3].[OH-] [Sample 2, LaCO3OH] | – | – | – | – | – | – | – | – | – | – | – | – | 35.9 | 0.929 | 0.153 | – |
| O=C([O-])[O-].[La+3].[OH-] [Sample 3, LaCO3OH] | – | – | – | – | – | – | – | – | – | – | – | – | 38.8 | 0.837 | 0.171 | – |
| O=C([O-])[O-].[La+3].[La+3].[O-2].[O-2] [Sample 4, La2CO5] | – | – | – | – | – | – | – | – | – | – | – | – | 25.6 | 0.545 | 0.275 | – |
| O=C([O-])[O-].[La+3].[La+3].[O-2].[O-2] [Sample 5, La2O2CO3] | – | – | – | – | – | – | – | – | – | – | – | – | 18 | 0.483 | 0.278 | – |
| O=C([O-])[O-].[La+3].[La+3].[O-2].[O-2] [Sample 6, La2CO5] | – | – | – | – | – | – | – | – | – | – | – | – | 18.8 | 0.391 | 0.308 | – |
| O=C([O-])[O-].[La+3].[La+3].[O-2].[O-2] [Sample 7, La2O2CO3] | – | – | – | – | – | – | – | – | – | – | – | – | 16.5 | 0.36 | 0.327 | – |
| O=C([O-])[O-].[La+3].[La+3].[O-2].[O-2] [Sample 8, La2CO5] | – | – | – | – | – | – | – | – | – | – | – | – | 11.9 | 0.434 | 0.483 | – |
| O.O=C([O-])[O-].O=C([O-])[O-].O=C([O-])[O-].[La+3].[La+3] [Sample 10, La2(CO3)3•1H2O, reference compound] | – | – | – | – | – | – | – | – | – | – | – | – | 2.9 | 0.094 | 0.790 | rate of removal of phosphate compared with LaOCl of Example 1 [2]: faster at the beginning but slower after about 3 minutes |
| O=C([O-])[O-].O=C([O-])[O-].[Ti+4] [Ti(CO3)2, Ti carbonate] | 93 | 100 | 99 | 100 | 99 | 99 | 98 | 100 | 79 | 100 | 98 | 96 | – | – | – | % Analyte Removed As ([1]; listed as compound 5): most efficient |
| [O]=[Ti]=[O] [TiO2] | 93 | 8 | 0 | 4 | 0 | 6 | 11 | 49 | 0 | 1 | 97 | 96 | – | – | – | % Analyte Removed As ([1]; listed as compound 6): most efficient |
